Assays:
Assay type in all cases: physicochemical
[1] = Evaluation of solubility in methyl ethyl ketone (MEK); conditions: for Solubility in solvent: stirred at room temperature for 30 minutes
Protocol: For each of Exemplary Compounds shown in Tables 1 and 2, a predetermined amount of the compound was added to a solvent of methyl ethyl ketone (MEK), and solubility was evaluated according to the following standard by stirring the mixture at room temperature for 30 minutes.
• A: 1 g or more of the compound was stably dissolved in 300 g of MEK. • B: 1 g was not dissolved in 300 g of MEK. • X: decomposition was observed by measuring the absorption spectrum after the dissolution.

[2] = Evaluation of absorption spectrum (maximal absorption wavelength in chloroform solution); conditions: for λmax (maximal absorption wavelength): chloroform solution, 3.0×10^−5 mol/L, 1 mm quartz cell; for Near infrared absorbing property: grade of λmax in chloroform solution
Protocol: The specific compound is diluted with chloroform to a concentration of […], and an absorbance of the obtained sample solution is measured with a spectrophotometer (UV-3600 Plus, manufactured by Shimadzu Corporation) using a 1 mm quartz cell. A maximal absorption wavelength (Amax) is measured from an absorption spectrum of the sample solution.
For each of Exemplary Compounds shown in Tables 1 and 2, a sample solution was prepared by diluting the compound with chloroform to a concentration of 3.0×10^−5 mol/L, and near infrared absorbability was evaluated.
For each sample solution, an absorbance was measured in a 1 mm quartz cell using a spectrophotometer (UV-3600 Plus, manufactured by Shimadzu Corporation).
A maximal absorption wavelength (Amax) was measured from the absorption spectrum of each sample solution. The results are shown in Tables 1 and 2, and the wavelength of Amax was evaluated according to the following standard.
• A: Amax was 1,150 nm or more. • B: Amax was less than 1,150 nm.

[3] = Evaluation of heat stability of polystyrene resin film (hot plate 180° C., 5 minutes); set-up: key to Heat stability of resin composition: absorbance reduction rate of Amax was less than 5%; B: absorbance reduction rate of Amax was 5% or more and less than 10%; C: absorbance reduction rate of Amax was 10% or more and less than 50%; D: absorbance reduction rate of Amax was 50% or more; X: solubility was insufficient, so that the film cannot be produced, which was not evaluable; conditions: polystyrene resin film on glass, hot plate 180° C. for 5 minutes, absorbance reduction rate at λmax
Protocol: 30 mg of each of Exemplary Compounds and the comparative compounds described in the tables was dissolved in 8.9 g of methyl ethyl ketone and 1.1 g of a polystyrene resin (manufactured by Sigma-Aldrich Co. LLC) to prepare a resin composition.
The obtained resin composition was spin-coated on a glass substrate to form a coating film, and the obtained coating film was dried at 60° C. for 2 minutes to produce a resin film. […]
• A: absorbance reduction rate of Amax was less than 5%. • B: absorbance reduction rate of Amax was 5% or more and less than 10%. • C: absorbance reduction rate of Amax was 10% or more and less than 50%. • D: absorbance reduction rate of Amax was 50% or more. • X: solubility was insufficient, so that the film cannot be produced, which was not evaluable.

Structure (SMILES) | Solubility in solvent [1] | λmax (maximal absorption wavelength) [2] [nm] | Near infrared absorbing property [2] | Heat stability of resin composition [3] | solubility in a solvent (in words) [1]
CCCCc1ccc(N(c2ccc(CCCC)cc2)c2ccc([N+](=C3C=CC(=[N+](c4ccc(N(c5ccc(CCCC)cc5)c5ccc(CCCC)cc5)cc4)c4ccc(N(c5ccc(CCCC)cc5)c5ccc(CCCC)cc5)cc4)C=C3)c3ccc(N(c4ccc(CCCC)cc4)c4ccc(CCCC)cc4)cc3)cc2)cc1.[O-][Cl+3]([O-])([O-])[O-].[O-][Cl+3]([O-])([O-])[O-] [A-8] | A (1 g or more of the compound was stably dissolved in 300 g of MEK) | 1210 | A (Amax was 1,150 nm or more) | A (absorbance reduction rate of Amax was less than 5%) | –
COc1cc(C)c(N(c2ccc([N+](=C3C=CC(=[N+](c4ccc(N(c5c(C)cc(OC)cc5C)c5c(C)cc(OC)cc5C)cc4)c4ccc(N(c5c(C)cc(OC)cc5C)c5c(C)cc(OC)cc5C)cc4)C=C3)c3ccc(N(c4c(C)cc(OC)cc4C)c4c(C)cc(OC)cc4C)cc3)cc2)c2c(C)cc(OC)cc2C)c(C)c1.[O-][Cl+3]([O-])([O-])[O-].[O-][Cl+3]([O-])([O-])[O-] [A-22] | A (1 g or more of the compound was stably dissolved in 300 g of MEK) | 1308 | A (Amax was 1,150 nm or more) | A (absorbance reduction rate of Amax was less than 5%) | –
Cc1cc(C)c(N(c2ccc([N+](=C3C=CC(=[N+](c4ccc(N(c5c(C)cc(C)cc5C)c5c(C)cc(C)cc5C)cc4)c4ccc(N(c5c(C)cc(C)cc5C)c5c(C)cc(C)cc5C)cc4)C=C3)c3ccc(N(c4c(C)cc(C)cc4C)c4c(C)cc(C)cc4C)cc3)cc2)c2c(C)cc(C)cc2C)c(C)c1 [A-3] | A (1 g or more of the compound was stably dissolved in 300 g of MEK) | – | A (Amax was 1,150 nm or more) | A (absorbance reduction rate of Amax was less than 5%) | –
FC(F)(F)c1ccc(N(c2ccc([N+](=C3C=CC(=[N+](c4ccc(N(c5ccc(C(F)(F)F)cc5)c5ccc(C(F)(F)F)cc5)cc4)c4ccc(N(c5ccc(C(F)(F)F)cc5)c5ccc(C(F)(F)F)cc5)cc4)C=C3)c3ccc(N(c4ccc(C(F)(F)F)cc4)c4ccc(C(F)(F)F)cc4)cc3)cc2)c2ccc(C(F)(F)F)cc2)cc1.[O-][Cl+3]([O-])([O-])[O-].[O-][Cl+3]([O-])([O-])[O-] [A-7] | A (1 g or more of the compound was stably dissolved in 300 g of MEK) | 1162 | A (Amax was 1,150 nm or more) | A (absorbance reduction rate of Amax was less than 5%) | –
Cc1ccc(N(c2ccc(C)cc2)c2ccc([N+](=C3C=CC(=[N+](c4ccc(N(c5ccc(C)cc5)c5ccc(C)cc5)cc4)c4ccc(N(c5ccc(C)cc5)c5ccc(C)cc5)cc4)C=C3)c3ccc(N(c4ccc(C)cc4)c4ccc(C)cc4)cc3)cc2)cc1.F[B-](F)(F)F.F[B-](F)(F)F [A-29] | A (1 g or more of the compound was stably dissolved in 300 g of MEK) | 1209 | A (Amax was 1,150 nm or more) | A (absorbance reduction rate of Amax was less than 5%) | –
C1=CC(=[N+](c2ccc(N(c3ccccc3)c3ccccc3)cc2)c2ccc(N(c3ccccc3)c3ccccc3)cc2)C=CC1=[N+](c1ccc(N(c2ccccc2)c2ccccc2)cc1)c1ccc(N(c2ccccc2)c2ccccc2)cc1 [Comparative compound 1, reference compound] | B (1 g was not dissolved in 300 g of MEK) | 1230 | A (Amax was 1,150 nm or more) | X | inferior
Cc1ccc(N(c2ccc(C)cc2)c2ccc([N+](=C3C=CC(=[N+](c4ccc(N(c5ccc(C)cc5)c5ccc(C)cc5)cc4)c4ccc(N(c5ccc(C)cc5)c5ccc(C)cc5)cc4)C=C3)c3ccc(N(c4ccc(C)cc4)c4ccc(C)cc4)cc3)cc2)cc1.O=S(=O)([C-](S(=O)(=O)C(F)(F)F)S(=O)(=O)C(F)(F)F)C(F)(F)F.O=S(=O)([C-](S(=O)(=O)C(F)(F)F)S(=O)(=O)C(F)(F)F)C(F)(F)F [A-34] | A (1 g or more of the compound was stably dissolved in 300 g of MEK) | 1211 | A (Amax was 1,150 nm or more) | A (absorbance reduction rate of Amax was less than 5%) | –
Cc1ccc(N(c2ccc(C)cc2)c2ccc([N+](=C3C=CC(=[N+](c4ccc(N(c5ccc(C)cc5)c5ccc(C)cc5)cc4)c4ccc(N(c5ccc(C)cc5)c5ccc(C)cc5)cc4)C=C3)c3ccc(N(c4ccc(C)cc4)c4ccc(C)cc4)cc3)cc2)cc1.c1ccc([B-](c2ccccc2)(c2ccccc2)c2ccccc2)cc1.c1ccc([B-](c2ccccc2)(c2ccccc2)c2ccccc2)cc1 [A-36] | A (1 g or more of the compound was stably dissolved in 300 g of MEK) | 1215 | A (Amax was 1,150 nm or more) | A (absorbance reduction rate of Amax was less than 5%) | –
Cc1ccc(N(c2ccc(C)cc2)c2ccc([N+](=C3C=CC(=[N+](c4ccc(N(c5ccc(C)cc5)c5ccc(C)cc5)cc4)c4ccc(N(c5ccc(C)cc5)c5ccc(C)cc5)cc4)C=C3)c3ccc(N(c4ccc(C)cc4)c4ccc(C)cc4)cc3)cc2)cc1 [A-35] | A (1 g or more of the compound was stably dissolved in 300 g of MEK) | – | A (Amax was 1,150 nm or more) | A (absorbance reduction rate of Amax was less than 5%) | –
COC(=O)c1cccc(N(c2ccc([N+](=C3C=CC(=[N+](c4ccc(N(c5cccc(C(=O)OC)c5)c5cccc(C(=O)OC)c5)cc4)c4ccc(N(c5cccc(C(=O)OC)c5)c5cccc(C(=O)OC)c5)cc4)C=C3)c3ccc(N(c4cccc(C(=O)OC)c4)c4cccc(C(=O)OC)c4)cc3)cc2)c2cccc(C(=O)OC)c2)c1.[O-][Cl+3]([O-])([O-])[O-].[O-][Cl+3]([O-])([O-])[O-] [A-26] | A (1 g or more of the compound was stably dissolved in 300 g of MEK) | 1232 | A (Amax was 1,150 nm or more) | A (absorbance reduction rate of Amax was less than 5%) | –
N#Cc1ccc(N(c2ccc([N+](=C3C=CC(=[N+](c4ccc(N(c5ccc(C#N)c(F)c5)c5ccc(C#N)c(F)c5)cc4)c4ccc(N(c5ccc(C#N)c(F)c5)c5ccc(C#N)c(F)c5)cc4)C=C3)c3ccc(N(c4ccc(C#N)c(F)c4)c4ccc(C#N)c(F)c4)cc3)cc2)c2ccc(C#N)c(F)c2)cc1F [A-19] | A (1 g or more of the compound was stably dissolved in 300 g of MEK) | 1165 | A (Amax was 1,150 nm or more) | A (absorbance reduction rate of Amax was less than 5%) | –
N#Cc1ccc(N(c2ccc(C#N)cc2)c2ccc([N+](=C3C=CC(=[N+](c4ccc(N(c5ccc(C#N)cc5)c5ccc(C#N)cc5)cc4)c4ccc(N(c5ccc(C#N)cc5)c5ccc(C#N)cc5)cc4)C=C3)c3ccc(N(c4ccc(C#N)cc4)c4ccc(C#N)cc4)cc3)cc2)cc1.[O-][Cl+3]([O-])([O-])[O-].[O-][Cl+3]([O-])([O-])[O-] [A-9] | A (1 g or more of the compound was stably dissolved in 300 g of MEK) | 1170 | A (Amax was 1,150 nm or more) | A (absorbance reduction rate of Amax was less than 5%) | –

Source: patent publication US20260022246A1, “COLORING AGENT COMPOSITION, FILM, OPTICAL FILTER, AND NEAR INFRARED ABSORBING COMPOUND” (FUJIFILM Corporation, priority 2023, published 2026)
